Experimental data: patent publication US10238670B2, “9-aminomethyl minocycline compounds and methods of use thereof in urinary tract infection (UTI) treatment” (Paratek Pharmaceuticals, Inc., priority 2016, dated 2019)
Converted amounts (≈) assume the structure as drawn. Like-named read-outs stand apart in the source and are kept apart here.

How the values were obtained:
Assay in all cases: In vitro MIC, 2010 surveillance isolates
E. coli ESBL− = assay type: cell-based, Escherichia coli
E. coli ESBL+ = assay type: cell-based, Escherichia coli
K. pneumoniae ESBL− = assay type: cell-based, Klebsiella pneumoniae
K. pneumoniae ESBL+ = assay type: cell-based, Klebsiella pneumoniae
K. oxytoca = assay type: cell-based
E. cloacae CeftazS = assay type: cell-based
E. cloacae CeftazR = assay type: cell-based
Enterobacter spp = assay type: cell-based
A. baumanii = assay type: cell-based
Acinetobacter spp = assay type: cell-based; conditions: for % R (resistance): CLSI breakpoints
MSSA = assay type: cell-based
MRSA = assay type: cell-based
MS CoNS = assay type: cell-based, Coagulase-Negative Staphylococcus
MR CoNS = assay type: cell-based, Coagulase-Negative Staphylococcus
E. faecalis VS = assay type: cell-based
E. faecalis VNS = assay type: cell-based
E. faecium VS = assay type: cell-based
E. faecium VNS = assay type: cell-based

MIC90 (E. coli ESBL−; Asia/Pac, N=282): 0.12 µg/mL (≈ 0.216 µM)
MIC90 (E. coli ESBL−; Europe, N=1533): 0.12 µg/mL (≈ 0.216 µM)
MIC90 (E. coli ESBL−; L. Amer, N=389): 0.12 µg/mL (≈ 0.216 µM)
MIC90 (E. coli ESBL−; N America, N=1172): 0.12 µg/mL (≈ 0.216 µM)
MIC90 (E. coli ESBL+; Asia/Pac, N=219): > 8 µg/mL
MIC90 (E. coli ESBL+; Escherichia coli, ESBL-producing E. coli, read-out: MIC90): > 8 µg/mL
MIC90 (E. coli ESBL+; Europe, N=274): > 8 µg/mL
MIC90 (E. coli ESBL+; L. Amer, N=168): > 8 µg/mL
MIC90 (E. coli ESBL+; N America, N=134): > 8 µg/mL
MIC90 (K. pneumoniae ESBL−; Asia/Pac, N=189): 0.12 µg/mL (≈ 0.216 µM)
MIC90 (K. pneumoniae ESBL−; Europe, N=361): 0.12 µg/mL (≈ 0.216 µM)
MIC90 (K. pneumoniae ESBL−; L. Amer, N=160): 0.12 µg/mL (≈ 0.216 µM)
MIC90 (K. pneumoniae ESBL−; N America, N=671): 0.12 µg/mL (≈ 0.216 µM)
MIC90 (K. pneumoniae ESBL+; Asia/Pac, N=124): > 8 µg/mL
MIC90 (K. pneumoniae ESBL+; Europe, N=151): > 8 µg/mL
MIC90 (K. pneumoniae ESBL+; L. Amer, N=209): > 8 µg/mL
MIC90 (K. pneumoniae ESBL+; N America, N=108): > 8 µg/mL
MIC90 (K. oxytoca; Asia/Pac, N=17): > 8 µg/mL
MIC90 (K. oxytoca; Europe, N=158): > 8 µg/mL
MIC90 (K. oxytoca; L. Amer, N=25): > 8 µg/mL
MIC90 (K. oxytoca; N America, N=177): 4 µg/mL (≈ 7.21 µM)
MIC90 (E. cloacae CeftazS; Asia/Pac, N=100): 2 µg/mL (≈ 3.61 µM)
MIC90 (E. cloacae CeftazS; Europe, N=183): 2 µg/mL (≈ 3.61 µM)
MIC90 (E. cloacae CeftazS; L. Amer, N=57): > 8 µg/mL
MIC90 (E. cloacae CeftazS; N America, N=210): 1 µg/mL (≈ 1.8 µM)
MIC90 (E. cloacae CeftazR; Asia/Pac, N=63): > 8 µg/mL
MIC90 (E. cloacae CeftazR; Europe, N=72): > 8 µg/mL
MIC90 (E. cloacae CeftazR; L. Amer, N=42): > 8 µg/mL
MIC90 (E. cloacae CeftazR; N America, N=77): > 8 µg/mL
MIC90 (Enterobacter spp; Asia/Pac, N=52): > 8 µg/mL
MIC90 (Enterobacter spp; Europe, N=82): > 8 µg/mL
MIC90 (Enterobacter spp; L. Amer, N=42): > 8 µg/mL
MIC90 (Enterobacter spp; N America, N=101): > 8 µg/mL
MIC90 (A. baumanii; Asia/Pac, N=275): > 8 µg/mL
MIC90 (A. baumanii; Europe, N=145): > 8 µg/mL
MIC90 (A. baumanii; L. Amer, N=275): > 8 µg/mL
MIC90 (A. baumanii; N America, N=154): > 8 µg/mL
MIC90 (Acinetobacter spp; Europe, N=43): > 8 µg/mL
MIC90 (Acinetobacter spp; N America, N=42): > 8 µg/mL
MIC90 (MSSA; Asia/Pac, N=641): 4 µg/mL (≈ 7.21 µM)
MIC90 (MSSA; Europe, N=2109): 4 µg/mL (≈ 7.21 µM)
MIC90 (MSSA; L. Amer, N=590): 4 µg/mL (≈ 7.21 µM)
MIC90 (MSSA; N America, N=2373): 4 µg/mL (≈ 7.21 µM)
MIC90 (MRSA; Asia/Pac, N=428): > 8 µg/mL
MIC90 (MRSA; Europe, N=750): > 8 µg/mL
MIC90 (MRSA; L. Amer, N=506): > 8 µg/mL
MIC90 (MRSA; N America, N=2508): > 8 µg/mL
MIC90 (MS CoNS; Asia/Pac, N=18): 8 µg/mL (≈ 14.4 µM)
MIC90 (MS CoNS; Europe, N=185): 4 µg/mL (≈ 7.21 µM)
MIC90 (MS CoNS; L. Amer, N=67): 4 µg/mL (≈ 7.21 µM)
MIC90 (MS CoNS; N America, N=191): 4 µg/mL (≈ 7.21 µM)
MIC90 (MR CoNS; Asia/Pac, N=77): > 8 µg/mL
MIC90 (MR CoNS; Europe, N=510): > 8 µg/mL
MIC90 (MR CoNS; L. Amer, N=301): > 8 µg/mL
MIC90 (MR CoNS; N America, N=461): > 8 µg/mL
MIC90 (E. faecalis VS; Asia/Pac, N=214): > 8 µg/mL
MIC90 (E. faecalis VS; Europe, N=669): > 8 µg/mL
MIC90 (E. faecalis VS; L. Amer, N=290): > 8 µg/mL
MIC90 (E. faecalis VS; N America, N=863): > 8 µg/mL
range of MICs (N <10, shown instead of MIC90) (E. faecalis VNS; Asia/Pac, N=1): >8
range of MICs (N <10, shown instead of MIC90) (E. faecalis VNS; Europe, N=8): >8
range of MICs (N <10, shown instead of MIC90) (E. faecalis VNS; L. Amer, N=7): >8
MIC90 (E. faecalis VNS; N America, N=38): > 8 µg/mL
MIC90 (E. faecium VS; Asia/Pac, N=106): > 8 µg/mL
MIC90 (E. faecium VS; Europe, N=303): > 8 µg/mL
MIC90 (E. faecium VS; L. Amer, N=51): > 8 µg/mL
MIC90 (E. faecium VS; N America, N=115): > 8 µg/mL
MIC90 (E. faecium VNS; Asia/Pac, N=24): > 8 µg/mL
MIC90 (E. faecium VNS; Europe, N=71): > 8 µg/mL
MIC90 (E. faecium VNS; L. Amer, N=41): > 8 µg/mL
MIC90 (E. faecium VNS; N America, N=478): > 8 µg/mL
SMILES: CO/N=C(\C(=O)N[C@@H]1C(=O)N2C(C(=O)O)=C(CSc3nc(=O)c(=O)[nH]n3C)CS[C@H]12)c1csc(N)n1 [Ceftriaxone]
% R (resistance) (E. coli ESBL−; Asia/Pac, Eucast breakpoints): 0%
% R (resistance) (E. coli ESBL−; Europe, Eucast breakpoints): 0%
% R (resistance) (E. coli ESBL−; L. Amer, CLSI breakpoints): 0%
% R (resistance) (E. coli ESBL−; N America, CLSI breakpoints): 0%
% R (resistance) (E. coli ESBL+; Asia/Pac, Eucast breakpoints): 99.5%
resistance rates for ESBL-producing clinical isolates (E. coli ESBL+; E. coli): 95%
% R (resistance) (E. coli ESBL+; Europe, Eucast breakpoints): 94.2%
% R (resistance) (E. coli ESBL+; L. Amer, CLSI breakpoints): 97.6%
% R (resistance) (E. coli ESBL+; N America, CLSI breakpoints): 85.8%
% R (resistance) (K. pneumoniae ESBL−; Asia/Pac, Eucast breakpoints): 0%
% R (resistance) (K. pneumoniae ESBL−; Europe, Eucast breakpoints): 0%
% R (resistance) (K. pneumoniae ESBL−; L. Amer, CLSI breakpoints): 0%
% R (resistance) (K. pneumoniae ESBL−; N America, CLSI breakpoints): 0%
% R (resistance) (K. pneumoniae ESBL+; Asia/Pac, Eucast breakpoints): 93.5%
% R (resistance) (K. pneumoniae ESBL+; Europe, Eucast breakpoints): 94.7%
% R (resistance) (K. pneumoniae ESBL+; L. Amer, CLSI breakpoints): 99.5%
% R (resistance) (K. pneumoniae ESBL+; N America, CLSI breakpoints): 95.4%
% R (resistance) (K. oxytoca; Asia/Pac, Eucast breakpoints): 29.4%
% R (resistance) (K. oxytoca; Europe, Eucast breakpoints): 17.7%
% R (resistance) (K. oxytoca; L. Amer, CLSI breakpoints): 40%
% R (resistance) (K. oxytoca; N America, CLSI breakpoints): 10.2%
% R (resistance) (E. cloacae CeftazS; Asia/Pac, Eucast breakpoints): 5%
% R (resistance) (E. cloacae CeftazS; Europe, Eucast breakpoints): 7.7%
% R (resistance) (E. cloacae CeftazS; L. Amer, CLSI breakpoints): 24.6%
% R (resistance) (E. cloacae CeftazS; N America, CLSI breakpoints): 3.3%
% R (resistance) (E. cloacae CeftazR; Asia/Pac, Eucast breakpoints): 100%
% R (resistance) (E. cloacae CeftazR; Europe, Eucast breakpoints): 100%
% R (resistance) (E. cloacae CeftazR; L. Amer, CLSI breakpoints): 100%
% R (resistance) (E. cloacae CeftazR; N America, CLSI breakpoints): 100%
% R (resistance) (Enterobacter spp; Asia/Pac, Eucast breakpoints): 30.8%
% R (resistance) (Enterobacter spp; Europe, Eucast breakpoints): 39%
% R (resistance) (Enterobacter spp; L. Amer, CLSI breakpoints): 31%
% R (resistance) (Enterobacter spp; N America, CLSI breakpoints): 24.8%
% R (resistance) (Acinetobacter spp; L. Amer): 0%
% R (resistance) (Acinetobacter spp; N America): 0%
% R (resistance) (MSSA; Asia/Pac, Eucast breakpoints): 0%
% R (resistance) (MSSA; Europe, Eucast breakpoints): 0%
% R (resistance) (MSSA; L. Amer, CLSI breakpoints): 0%
% R (resistance) (MSSA; N America, CLSI breakpoints): 0.1%
% R (resistance) (MRSA; Asia/Pac, Eucast breakpoints): 100%
% R (resistance) (MRSA; Europe, Eucast breakpoints): 100%
% R (resistance) (MRSA; L. Amer, CLSI breakpoints): 100%
% R (resistance) (MRSA; N America, CLSI breakpoints): 100%
% R (resistance) (MS CoNS; Asia/Pac, Eucast breakpoints): 0%
% R (resistance) (MS CoNS; Europe, Eucast breakpoints): 0%
% R (resistance) (MS CoNS; L. Amer, CLSI breakpoints): 0%
% R (resistance) (MS CoNS; N America, CLSI breakpoints): 0%
% R (resistance) (MR CoNS; Asia/Pac, Eucast breakpoints): 100%
% R (resistance) (MR CoNS; Europe, Eucast breakpoints): 100%
% R (resistance) (MR CoNS; L. Amer, CLSI breakpoints): 100%
% R (resistance) (MR CoNS; N America, CLSI breakpoints): 100%
